In the assay the target is Probable UDP-galactopyranose mutase (Klebsiella pneumoniae, UniProt Q48481). Put plainly: Fluorescence Polarization Assay. Here is the method:
Polarization for the fluorescein-UDP conjugated probe in the presence of inhibitors was measured on a Tecan M1000 microplate reader, exciting with 470 nm light and monitoring emission at 525 nm. Each condition was tested in triplicate in the presence of 220 nM K. pneumoniae UGM and 23.3 nM of the probe.
(Polarisation of emitted light reports the rotation of a fluorescent probe.)

Broadly, the Kd is a measure of binding affinity in units of concentration.

Sequence of Probable UDP-galactopyranose mutase (Q48481 whole entry): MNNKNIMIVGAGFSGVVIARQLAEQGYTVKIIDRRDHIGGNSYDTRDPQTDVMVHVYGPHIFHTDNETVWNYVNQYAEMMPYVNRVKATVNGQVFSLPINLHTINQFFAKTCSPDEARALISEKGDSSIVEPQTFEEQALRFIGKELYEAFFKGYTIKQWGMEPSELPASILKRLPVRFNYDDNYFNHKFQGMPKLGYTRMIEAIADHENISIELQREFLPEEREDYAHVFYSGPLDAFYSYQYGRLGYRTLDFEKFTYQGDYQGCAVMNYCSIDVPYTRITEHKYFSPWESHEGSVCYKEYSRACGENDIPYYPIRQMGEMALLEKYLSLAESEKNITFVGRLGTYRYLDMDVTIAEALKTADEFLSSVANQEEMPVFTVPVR

On to `O=C(O)CC1Sc2nnc(-c3ccco3)n2N=C1c1ccccc1` (configuration not stated) [2‐[3‐(Furan‐2‐yl)‐6‐phenyl‐7H‐[1,2,4]triazolo[3,4‐b][1,3,4]thiadiazin‐7‐yl]acetate (6)], for which the Kd worked out at 43 µM.

`C=CCNc1nc(-c2cc(C)n(CCC(=O)O)c2C)cs1` [3‐{2,5‐Dimethyl‐3‐[2‐(prop‐2‐en‐1‐ylamino)‐1,3‐thiazol‐4‐yl]pyrrol‐1‐yl}propanoate (10)] showed a Kd of 6 µM.

Source of the values: BindingDB's records for doi:10.1021/acschembio.5b00370 (University of Wisconsin-Madison, 2015).
